Measurements from US12059425B2, “Heterocyclic compounds and uses thereof” (Kumquat Biosciences Inc., priority 2022, dated 2024).

Legend:
GP2D cells = test: Ras cellular assay, cell proliferation GP2D; format: cell-based
Summary of the method: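 GP2D cells (G12D Ras mutant) seeded (e.g., 800/well) and treated the next day with a dilution series (e.g., 9-point, 3-fold). After approximately 5 days, viability measured by CellTiter-Glo luminescence; IC50 from four-parameter fit.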

wildtype K-Ras = target: T1, wildtype K-Ras (Homo sapiens, UniProt P01116); test: PPI-HTRF assay, wildtype K-Ras / SOS1 interaction; format: biochemical; details: HTRF, K-Ras wt; read-out: PPI-HTRF-5 nM (K-Ras wt IC50)
T1 construct: made in house; host or cells: E. coli, e.g. BL21 (DE3)
Summary of the method: (§1)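 Equilibrium interaction of GST-tagged human K-Ras (wildtype or G12D/G12V/G12S mutant) with His-tagged hSOS1. Detection uses anti-GST-Eu(K) and anti-6His-XL665 in HEPES pH 7.4 buffer. Signal is read ≥10 min after mixing and the ratiometric HTRF signal is fitted for IC50.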

K-Ras G12D = target: T2, K-Ras G12D (Homo sapiens, UniProt P01116, G12D); test: PPI-HTRF assay, K-Ras G12D / SOS1 interaction; format: biochemical; details: HTRF, K-Ras G12D; read-out: PPI-HTRF-5 nM (K-Ras G12D IC50)
T2 construct: made in house; host or cells: E. coli, e.g. BL21 (DE3)
Summary of the method: as §1

K-Ras G12S = target: T3, K-Ras G12S (Homo sapiens, UniProt P01116, G12S); test: PPI-HTRF assay, K-Ras G12S / SOS1 interaction; format: biochemical; details: read-out: PPI-HTRF-5 nM (K-Ras G12S IC50)
T3 construct: made in house; host or cells: E. coli, e.g. BL21 (DE3)
Summary of the method: as §1

K-Ras G12V = target: T4, K-Ras G12V (Homo sapiens, UniProt P01116, G12V); test: PPI-HTRF assay, K-Ras G12V / SOS1 interaction; format: biochemical; details: HTRF, K-Ras G12V; read-out: PPI-HTRF-5 nM (K-Ras G12V IC50)
T4 construct: made in house; host or cells: E. coli, e.g. BL21 (DE3)
Summary of the method: as §1

SW620 cells = test: Ras cellular assay, cell proliferation SW620; format: cell-based; details: Homo sapiens, SW-620
Excerpt: (§2) For example, this assay can be also used to assess selective growth inhibition of a mutant Ras protein relative to a wildtype, or relative to a different mutant Ras protein.

A549 cells = test: Ras cellular assay, cell proliferation A549; format: cell-based; details: Homo sapiens
Protocol: as §2
A549 (ATCC CRL-185) and LS123 (ATCC CRL-255) cell lines comprise a G12S mutation and can be used to assess Ras cellular signaling in vitro, e.g., in response to treatment with a compound described herein. A549 culture medium is prepared with RPMI-1640 and 10% heat-inactivated FBS. LS123 culture medium is prepared with RPMI-1640 and 10% heat-inactivated FBS. A CellTiter-Glo (CTG) luminescent based assay (Promega) is used to assess growth of the cells, as a measurement of the ability of the compounds herein to inhibit Ras signaling in the cells. The cells (e.g., 800 per well) are seeded in their respective culture medium in standard tissue culture-treated 384-well format plates (Falcon #08-772-116) or ultra-low attachment surface 384-well format plates (S-Bio #MS-9384WZ). The day after plating, cells are treated with a dilution series (e.g., a 10 point, 3-fold dilution series) of the compounds herein (e.g., approximately 40 μL final volume per well). Cell viability can be monitored (e.g., approximately 6 days later) according to the manufacturer's recommended instructions, where CellTiter-Glo reagent is added (e.g., approximately 10 μL), vigorously mixed, covered, and placed on a plate shaker (e.g., approximately for 20 min) to ensure sufficient cell lysis prior to assessment of luminescent signal. The IC50 values are determined using the four parameter fit. The resulting IC50 value is a measurement of the ability of the test compound to reduce cell growth of Ras-driven cells (e.g., tumor cell lines) in vitro and/or in vivo.

T2 sequence (P01116 1-188 isoform P01116-2 G12D): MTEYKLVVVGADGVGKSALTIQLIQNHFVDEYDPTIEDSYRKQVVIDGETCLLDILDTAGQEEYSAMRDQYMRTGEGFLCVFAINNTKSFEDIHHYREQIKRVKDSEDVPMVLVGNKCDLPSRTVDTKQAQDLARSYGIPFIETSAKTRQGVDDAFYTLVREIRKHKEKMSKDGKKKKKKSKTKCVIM
T4 sequence (P01116 1-188 isoform P01116-2 G12V): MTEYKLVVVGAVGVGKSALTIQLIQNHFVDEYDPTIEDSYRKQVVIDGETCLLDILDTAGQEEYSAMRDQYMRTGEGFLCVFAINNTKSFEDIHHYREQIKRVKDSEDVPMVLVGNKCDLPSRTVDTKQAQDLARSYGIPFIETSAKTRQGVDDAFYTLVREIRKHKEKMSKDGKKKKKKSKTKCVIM
T3 sequence (P01116 1-188 isoform P01116-2 G12S): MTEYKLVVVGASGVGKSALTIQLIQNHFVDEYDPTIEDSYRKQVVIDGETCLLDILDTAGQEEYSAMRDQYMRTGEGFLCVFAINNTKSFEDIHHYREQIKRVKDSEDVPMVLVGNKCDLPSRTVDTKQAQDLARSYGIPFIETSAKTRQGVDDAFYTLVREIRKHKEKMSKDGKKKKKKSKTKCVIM
T1 sequence (P01116 1-188 isoform P01116-2): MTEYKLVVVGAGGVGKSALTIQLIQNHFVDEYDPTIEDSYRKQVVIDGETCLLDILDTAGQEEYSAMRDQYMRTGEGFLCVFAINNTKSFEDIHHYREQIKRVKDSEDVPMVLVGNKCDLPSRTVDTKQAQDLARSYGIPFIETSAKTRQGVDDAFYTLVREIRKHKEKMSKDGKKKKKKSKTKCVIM

Row | Compound | IC50 (GP2D cells) [µM] | IC50 (wildtype K-Ras) [µM] | IC50 (K-Ras G12D) [µM] | IC50 (K-Ras G12S) [µM] | IC50 (K-Ras G12V) [µM] | IC50 (SW620 cells) [µM] | IC50 (A549 cells) [µM]
1 | N#Cc1c(N)sc2c(F)ccc(-c3c(Cl)c4c5c(nc(OC[C@@]67CCCN6C[C@H](F)C7)nc5c3F)N3CCN(C=O)CCC3CO4)c12 (stereo partly drawn) [compound 152, 2-amino-4-(12-chloro-10-fluoro-8-(((2R,7aS)-2-fluorotetrahydro-1H-pyrrolizin-7a(5H)-yl)methoxy)-3-formyl-2,3,4,5,14,14a-hexahydro-1H-[1,4]diazepino[7′,1′:3,4][1,4]oxazepino[5,6,7-de]quinazolin-11-yl)-7-fluorobenzo[b]thiophene-3-carbonitrile] | < 5 | < 5 | < 5 | < 5 | < 5 | < 5 | < 5
2 | N#CCC1CCC2COc3c(Cl)c(-c4ccc(F)c5sc(N)c(C#N)c45)c(F)c4nc(OCC56CCCN5C[C@H](F)C6)nc(c34)N2C1 (stereo partly drawn) [compound 204, 2-amino-4-(6-chloro-11-(cyanomethyl)-4-fluoro-2-(((2R)-2-fluorotetrahydro-1H-pyrrolizin-7a(5H)-yl)methoxy)-8,8a,9,10,11,12-hexahydropyrido[2′,1′:3,4][1,4]oxazepino [5,6,7-de]quinazolin-5-yl)-7-fluorobenzo[b]thiophene-3-carbonitrile] | < 5 | < 5 | < 5 | < 5 | < 5 | < 5 | < 5
3 | N#Cc1c(N)sc2c(F)ccc(-c3c(Cl)c4c5c(nc(OC[C@@]67CCCN6C[C@H](F)C7)nc5c3F)N3CC[C@H]3CCO4)c12 [compound 207, 2-amino-4-((12aS)-9-chloro-7-fluoro-5-(((2R,7aS)-2-fluorotetrahydro-1H-pyrrolizin-7a(5H)-yl)methoxy)-1,11,12,12a-tetrahydro-2H-azeto[11,2′:5,6][1,5]oxazocino[4,3,2-de]quinazolin-8-yl)-7-fluorobenzo[b]thiophene-3-carbonitrile] | < 5 | < 5 | < 5 | < 5 | < 5 | < 5 | < 5
4 | CN1c2nc(OC[C@@]34CCCN3C[C@H](F)C4)nc3c(F)c(-c4ccc(F)c5sc(N)c(C#N)c45)c(Cl)c(c23)OCC2CN(C(=O)[C@@H]3N[C@H]3C3CC3)CC21 (stereo partly drawn) [compound 146, 2-amino-4-(6-chloro-10-((2R,3S)-3-cyclopropylaziridine-2-carbonyl)-4-fluoro-2-(((2R,7aS)-2-fluorotetrahydro-1H-pyrrolizin-7a(5H)-yl)methoxy)-12-methyl-8a,9,10,11,11a,12-hexahydro-8H-pyrrolo[3′,4′:6,7][1,5]oxazocino[4,3,2-de]quinazolin-5-yl)-7-fluorobenzo[b]thiophene-3-carbonitrile] | < 5 | < 5 | < 5 | < 5 | < 5 | < 5 | > 5
5 | N#Cc1c(N)sc2c(F)ccc(-c3c(Cl)c4c5c(nc(OC[C@@]67CCCN6C[C@H](F)C7)nc5c3F)N(CCC3CNC3)C3COCC3CO4)c12 (stereo partly drawn) [compound 171, 2-amino-4-(12-(2-(azetidin-3-yl)ethyl)-6-chloro-4-fluoro-2-(((2R,7aS)-2-fluorotetrahydro-1H-pyrrolizin-7a(5H)-yl)methoxy)-8a,9,11a,12-tetrahydro-8H,11H-furo[3′,4′:6,7][1,5]oxazocino[4,3,2-de]quinazolin-5-yl)-7-fluorobenzo[b]thiophene-3-carbonitrile] | < 5 | < 5 | < 5 | < 5 | < 5 | > 5 | > 5
6 | N#Cc1c(N)sc2c(F)ccc(-c3c(Cl)c4c5c(nc(OC[C@@]67CCCN6C[C@H](F)C7)nc5c3F)N3CC(COC(F)F)CCC3CO4)c12 (stereo partly drawn) [compound 154, 2-amino-4-(6-chloro-11-((difluoromethoxy)methyl)-4-fluoro-2-(((2R,7aS)-2-fluorotetrahydro-1H-pyrrolizin-7a(5H)-yl)methoxy)-8,8a,9,10,11,12-hexahydropyrido[2′,1′:3,4][1,4]oxazepino [5,6,7-de]quinazolin-5-yl)-7-fluorobenzo[b]thiophene-3-carbonitrile] | < 5 | < 5 | < 5 | < 5 | < 5 | < 5 | < 5
7 | N#Cc1c(N)sc2c(F)ccc(-c3c(Cl)c4c5c(nc(OC[C@@]67CCCN6C[C@H](F)C7)nc5c3F)N3CC5(CCCC3CO4)CN(C(=O)C3CC3(F)F)C5)c12 (stereo partly drawn) [compound 155, 2-amino-4-(3-chloro-1′-(2,2-difluorocyclopropane-1-carbonyl)-1-fluoro-13-(((2R,7aS)-2-fluorotetrahydro-1H-pyrrolizin-7a(5H)-yl)methoxy)-5a,6,7,8-tetrahydro-5H,10H-spiro[azepino[2′,1′:3,4][1,4]oxazepino[5,6,7-de]quinazoline-9,3′-azetidin]-2-yl)-7-fluorobenzo[b]thiophene-3-carbonitrile] | < 5 | < 5 | < 5 | < 5 | < 5 | < 5 | < 5
8 | N#Cc1c(N)sc2c(F)ccc(-c3c(Cl)c4c5c(nc(OC[C@@]67CCCN6C[C@H](F)C7)nc5c3F)N3CC5(CCCC3CCO4)CN(C(=O)C3CC3(F)F)C5)c12 (stereo partly drawn) [compound 127, 2-amino-4-(3-chloro-1′-(2,2-difluorocyclopropane-1-carbonyl)-1-fluoro-14-(((2R,7aS)-2-fluorotetrahydro-1H-pyrrolizin-7a(5H)-yl)methoxy)-5,6,6a,7,8,9-hexahydro-11H-spiro[azepino[1′,2′:5,6][1,5]oxazocino[4,3,2-de]quinazoline-10,3′-azetidin]-2-yl)-7-fluorobenzo[b]thiophene-3-carbonitrile] | < 5 | < 5 | < 5 | < 5 | < 5 | < 5 | > 5
9 | N#Cc1c(N)sc2c(F)ccc(-c3c(Cl)c4c5c(nc(OC[C@@]67CCCN6C[C@H](F)C7)nc5c3F)N3C(CCCC3C(F)F)CO4)c12 (stereo partly drawn) [compound 189, 2-amino-4-(6-chloro-12-(difluoromethyl)-4-fluoro-2-(((2R,7aS)-2-fluorotetrahydro-1H-pyrrolizin-7a(5H)-yl)methoxy)-8,8a,9,10,11,12-hexahydropyrido[2′,1′:3,4][1,4]oxazepino [5,6,7-de]quinazolin-5-yl)-7-fluorobenzo[b]thiophene-3-carbonitrile] | < 5 | < 5 | < 5 | < 5 | < 5 | < 5 | < 5
10 | N#Cc1c(N)sc2c(F)ccc(-c3c(Cl)c4c5c(nc(OC[C@@]67CCCN6C[C@H](F)C7)nc5c3F)N3CCCC3CO4)c12 (stereo partly drawn) [compound 137, 2-amino-4-(6-chloro-4-fluoro-2-(((2R,7aS)-2-fluorotetrahydro-1H-pyrrolizin-7a(5H)-yl)methoxy)-8a,9,10,11-tetrahydro-8H-pyrrolo[2′,1′:3,4][1,4]oxazepino[5,6,7-de]quinazolin-5-yl)-7-fluorobenzo[b]thiophene-3-carbonitrile] | < 5 | < 5 | < 5 | < 5 | < 5 | < 5 | < 5
